Reference: patent US5292737A, “N,N'-bis(sulfonamido)-2-amino-4-iminonaphthalen-1-ones and N,N'-bis(amido)-2-amino-4-iminonaphthalen-1-ones” (Sphinx Pharmaceuticals Corporation, priority 1992, dated 1994)
Like-named read-outs stand apart in the source and are kept apart here.

What was measured:
PKC isoenzyme α = biological target: T1, PKC isoenzyme α (Homo sapiens, UniProt P17252); experiment: Protein kinase C inhibition assay, PKC isoenzyme α; assay type: biochemical; settings: read-out: IC50 PKC α
T1 construct: made in house; host or cells: baculovirus-insect cell expression system
Method: (§1) A protein kinase C (PKC) assay is designed to duplicate the in vivo conditions required for protein kinase C function. Therefore, pH, salt and cofactor concentrations are similar to physiologic levels. Either lysine rich histone H1 (H1) or Myelin basic protein (Mbp) are used in the assay as the phosphorylation acceptor-protein because they are readily available and serve as good substrates for protein kinase C. Enzyme was prepared from baculovirus-insect cell expression systems.
(§2) In the screening assay, phosphatidylserine (PS) and DAG were co-sonicated to form unilamellar and multilamellar vesicles. The concentration of lipids in the assay were suboptimal to maximize the detection potential of the assay for inhibitors or activators. Potential effector compounds were added to the assay in dimethylsulfoxide at four concentrations to give final inhibitor concentrations of 1, 10, 50, and 150 μM, respectively.
(§3) The assay was started with the addition of enzyme and stopped after 10 min by the addition of 25% trichloroacetic acid (TCA) and 1.0 mg/ml bovine serum albumin (BSA). The radioactive histone product was retained and washed on glass fiber filters that allow the unreacted P-ATP to pass through. The amount of phosphorylation was determined by measuring radioactivity with a scintillation counter. Controls were included in every assay to measure background activity in the absence of enzyme, activity in the absence of lipids, and the maximum enzyme activity with saturating levels of the activator lipids.
(§4) Results of the protein kinase C assay are shown in Table 4 in columns labeled α, βII, γ, δ, ε, and .zeta. which represent various PKC isoenzymes. Results are show as IC50, which is the concentration of test compound needed to inhibit 50% of the protein kinase C activity in controls.

PKC isoenzyme γ = biological target: T2, PKC isoenzyme γ (Homo sapiens, UniProt P05129); experiment: Protein kinase C inhibition assay, PKC isoenzyme γ; assay type: biochemical; settings: read-out: IC50 PKC γ
T2 construct: made in house; host or cells: baculovirus-insect cell expression system
Method: as §1, §2, §3, §4

PKC isoenzyme ζ = biological target: T3, PKC isoenzyme ζ (Homo sapiens, UniProt Q05513); experiment: Protein kinase C inhibition assay, PKC isoenzyme ζ; assay type: biochemical; settings: read-out: IC50 PKC .zeta.
T3 construct: made in house; host or cells: baculovirus-insect cell expression system
T3 sequence (Q05513 1-592): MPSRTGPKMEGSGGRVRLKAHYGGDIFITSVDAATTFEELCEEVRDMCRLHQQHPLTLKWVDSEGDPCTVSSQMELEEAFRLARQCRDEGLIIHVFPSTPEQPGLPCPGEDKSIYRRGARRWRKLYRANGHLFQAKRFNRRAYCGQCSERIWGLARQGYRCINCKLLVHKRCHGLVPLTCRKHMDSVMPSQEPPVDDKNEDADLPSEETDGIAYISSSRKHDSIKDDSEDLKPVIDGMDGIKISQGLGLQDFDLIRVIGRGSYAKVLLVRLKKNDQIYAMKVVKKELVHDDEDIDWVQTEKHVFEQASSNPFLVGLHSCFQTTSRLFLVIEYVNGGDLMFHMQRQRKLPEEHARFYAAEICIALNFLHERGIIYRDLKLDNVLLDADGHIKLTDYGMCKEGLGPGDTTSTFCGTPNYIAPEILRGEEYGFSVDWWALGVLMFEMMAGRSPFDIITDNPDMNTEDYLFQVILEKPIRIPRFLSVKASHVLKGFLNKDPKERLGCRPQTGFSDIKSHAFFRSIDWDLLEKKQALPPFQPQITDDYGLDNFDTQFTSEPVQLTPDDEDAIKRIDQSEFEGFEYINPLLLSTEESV
Method: as §1, §2, §3, §4

human neutrophils = experiment: Neutrophil Superoxide Anion (O2) Release Assay, PMA-stimulated; assay type: cell-based; settings: Homo sapiens, Neutrophil, read-out: Neutrophil Superoxide Release IC50
Description: Phorbol-12,13-myristate acetate (PMA) stimulates O2 production in human neutrophils which in turn reduces cytochrome C. Reducing cytochrome C increases absorbance and the change in optical density (OD) is proportional to the amount of O2 produced by PMA stimulation. Inhibition is expressed as an IC50 value and is the amount of test compound that will inhibit fifty percent of the PMA-stimulated respiratory outburst, i.e. O2^31 production (Lherer et al. (1981) J. Clinical lnvest. 68:1314; Roberts et al. (1982) J. Immunological Methods 49:193).
Human donor blood in 0.38% Sodium Citrate was centrifuged for 10 minutes at 160 ×g at room temperature. Platelet-rich plasma was removed leaving the buffy coat and the red cell-enriched fraction. Saline with 0.38% Sodium Citrate was added to this fraction up to the original blood volume. The enriched blood sample was diluted 1:1 (v:v) with 3% dextran T500 (Pharmacia) in normal saline and placed in a 60 cc syringe, inverted over a beaker and allowed to settle 30 minutes at room temperature.
Leukocyte-enriched plasma was removed from the syringe, placed into 50 ml polypropylene conical centrifuge tubes and underlaid with 15-20 ml Lymphocyte Separation Medium (LSM Organon Technica). The tubes were centrifuged for 40 minutes at 500×g at room temperature. The plasma, buffy coat and LSM were aspirated off the pellets which contained red blood cells and neutrophils.
The pellets were vortexed and 10 ml ice-cold 0.2% NaCl was added to lyse the red blood cells while vortexing again for 10 seconds. Ice-cold 1.6% NaCl was added while vortexing for 10 seconds. The cells were combined from multiple tubes, centrifuged 10 min at 400×g at 4° C. This red cell lysis was repeated and the resulting neutrophil pellet was washed once in Reaction HBSS (GIBCO, HBSS with Ca^++ and Mg^++,.238% HEPES, 0.1% dextrose, 0.1% RIA grade bovine serum albumin, PH 7.2). The cells were resuspended in 1/5 the original blood volume with Reaction HBSS, counted and adjusted to 4.0×10^6 cells/ml at 4° C.
Duplicate samples of neutrophils were tested in 12×75 mm polypropylene tubes containing 0.25 ml of the neutrophil suspension. Cytochrome C mix (0.25 ml, 6.0 mg/ml cytochrome C type IV (Sigma) plus 1200 U/ml bovine liver catalase (Sigma) in Reaction HBSS described above) was added. PMA was added at 2×the final concentration in 0.5 ml of Reaction HBSS. PMA final test concentration were 0.0, 0.3, 9.0, 27.0, and 81.0 ng/ml. The tubes were vortexed and incubated for 10 minutes at 37° C. with shaking. After chilling for 5 minutes at 4° C. and centrifuging for 10 minutes at 4° C., 550×g, 0.5 ml of supernatant was removed from each tube. Normal saline (0.5 ml) was added to each 0.5 ml sample of supernatant and the absorbance of each sample was read at 550 nm on a spectrophotometer (Shimadzu). The PMA concentration which gives nearly maximal stimulation of superoxide release was determined.
The test samples of neutrophils were prepared as in the PMA dose response through addition of cytochrome C mix. Then 0.4 ml of Reaction HBSS as a control or test agent at 2.5×final test concentration was added and the tubes were vortexed and incubated for 30 minutes at 37° C. with shaking. PMA (0.1 ml) was added at a 10× concentration of the final concentration determined above. The samples were incubated for 10 minutes at 37° C. with shaking, chilled for 5 minutes at 4° C., and then centrifuged for 5 minutes at 550×g at 4° C. The supernatant (0.5 ml) was diluted with 0.5 ml normal saline as above and the absorbance was then determined at 550 nm. The percent change was calculated as follows: [formula] D-sphingosine (Sigma) used as reference standard.
Human neutrophils were first isolated according to Lherer et al. ((1981) J. Clinical Invest. 68:1314) and then tested for stimulation of superoxide anion release with phorbol--12,13-myristate acetate (PMA) in a dose-dependent manner. […]

PKC isoenzyme βII = biological target: T4, PKC isoenzyme βII (Homo sapiens, UniProt P05771); experiment: Protein kinase C inhibition assay, PKC isoenzyme βII; assay type: biochemical; settings: read-out: IC50 PKC βII
T4 construct: made in house; host or cells: baculovirus-insect cell expression system
T4 sequence (P05771 1-673 isoform P05771-2): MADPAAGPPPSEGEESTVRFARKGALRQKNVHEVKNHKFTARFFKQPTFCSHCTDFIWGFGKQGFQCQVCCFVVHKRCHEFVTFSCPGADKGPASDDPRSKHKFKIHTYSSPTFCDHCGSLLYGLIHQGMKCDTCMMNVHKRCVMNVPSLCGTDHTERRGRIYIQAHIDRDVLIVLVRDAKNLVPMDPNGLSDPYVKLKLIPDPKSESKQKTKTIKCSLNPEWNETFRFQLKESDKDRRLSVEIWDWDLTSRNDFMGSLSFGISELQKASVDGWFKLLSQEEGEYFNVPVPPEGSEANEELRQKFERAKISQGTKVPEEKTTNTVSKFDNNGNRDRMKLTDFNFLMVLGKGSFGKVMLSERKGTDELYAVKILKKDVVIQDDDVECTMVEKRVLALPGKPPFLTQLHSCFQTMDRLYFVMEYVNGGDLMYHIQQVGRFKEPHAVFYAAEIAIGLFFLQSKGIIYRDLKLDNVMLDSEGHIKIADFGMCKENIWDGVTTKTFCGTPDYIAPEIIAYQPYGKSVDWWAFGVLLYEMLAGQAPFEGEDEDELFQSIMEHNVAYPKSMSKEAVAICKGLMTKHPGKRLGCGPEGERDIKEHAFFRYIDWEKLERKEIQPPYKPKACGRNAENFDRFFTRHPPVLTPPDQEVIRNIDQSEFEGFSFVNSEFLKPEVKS
Method: as §1, §2, §3, §4

PKC isoenzyme δ = biological target: T5, PKC isoenzyme δ (Homo sapiens, UniProt Q05655); experiment: Protein kinase C inhibition assay, PKC isoenzyme δ; assay type: biochemical; settings: read-out: IC50 PKC δ
T5 construct: made in house; host or cells: baculovirus-insect cell expression system
T5 sequence (Q05655 whole entry): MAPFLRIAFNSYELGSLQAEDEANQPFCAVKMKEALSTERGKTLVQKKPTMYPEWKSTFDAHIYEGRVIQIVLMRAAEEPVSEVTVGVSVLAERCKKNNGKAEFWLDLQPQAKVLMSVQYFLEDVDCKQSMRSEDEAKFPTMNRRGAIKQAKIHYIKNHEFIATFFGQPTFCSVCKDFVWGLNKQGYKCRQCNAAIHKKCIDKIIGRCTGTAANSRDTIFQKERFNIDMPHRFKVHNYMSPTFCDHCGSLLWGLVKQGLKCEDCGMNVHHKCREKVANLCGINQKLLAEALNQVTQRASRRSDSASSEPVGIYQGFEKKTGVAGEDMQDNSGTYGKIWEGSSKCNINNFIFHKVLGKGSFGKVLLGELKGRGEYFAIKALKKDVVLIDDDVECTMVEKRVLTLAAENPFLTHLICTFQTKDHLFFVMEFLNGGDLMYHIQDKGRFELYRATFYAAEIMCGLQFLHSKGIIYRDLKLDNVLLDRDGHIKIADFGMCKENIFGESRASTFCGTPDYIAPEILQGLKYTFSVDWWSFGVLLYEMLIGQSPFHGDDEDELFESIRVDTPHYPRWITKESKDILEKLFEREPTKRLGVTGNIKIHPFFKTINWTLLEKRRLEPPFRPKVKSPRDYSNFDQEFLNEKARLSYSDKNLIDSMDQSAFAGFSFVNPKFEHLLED
Method: as §1, §2, §3, §4

Row | IC50 (PKC isoenzyme α) | IC50 (PKC isoenzyme γ) | IC50 (PKC isoenzyme ζ) | IC50 (human neutrophils; PMA-stimulated human neutrophils) | IC50 (PKC isoenzyme βII) | IC50 (PKC isoenzyme δ) | SMILES | IC50 (human neutrophils)
1 | 116 µM | 16 µM | 35 µM | 6.83 µM | – | – | O=C1C(Nc2ccc(S(=O)(=O)Nc3ncccn3)cc2)=CC(=Nc2ccc(S(=O)(=O)Nc3ncccn3)cc2)c2ccccc21 [Compound 6k] | –
2 | 100 µM | 94 µM | > 150 µM | – | 99 µM | 102 µM | CCCCCCCCCCCCCCCCNS(=O)(=O)c1ccc(N=C2C=C(Nc3ccc(S(=O)(=O)NCCCCCCCCCCCCCCCC)cc3)C(=O)c3ccccc32)cc1 [Compound 6o] | –
3 | – | – | – | – | – | – | CCCCCCCCCCCCC/C=C/[C@@H](O)[C@@H](N)CO [D--sphingosine, D-sphingosine, reference compound] | 2.85 µM
